# Assay results: US6410585B1, “Inhibitors of protein tyrosine phosphatase” (priority 1997, dated 2002)
# Values joined by “and” are separate entries in the source; they are usually repeats but may differ in a detail not shown here. Identical values can stand only once.
# Experiments:
# rat PTP1 = target: T1, rat PTP1 (Rattus norvegicus, UniProt P20417); test: PTP1 assay, pNPP hydrolysis (rate of change in A405); assay type: biochemical; conditions: for inhibition at 1 µM: Conc 1 uM; for inhibition at 1 µM / inhibition at 10 µM / inhibition at 100 µM: pNPP hydrolysis, Table 2, read-out: PTP1 Inhib PTP1N. % Inhib; for inhibition at 10 µM: Conc 10 uM; for inhibition at 100 µM: Conc 100 uM; for Ki: calculated from IC50-values obtained from a dose-response curve using the inhibition assay
# T1 construct: a C-terminal truncation of rat PTP1 (amino acid residues 1-322); GST (N, cleaved yes); made in house; host or cells: E. coli strain TG-1 (pGEX-2T)
# T1 sequence (P20417 1-322): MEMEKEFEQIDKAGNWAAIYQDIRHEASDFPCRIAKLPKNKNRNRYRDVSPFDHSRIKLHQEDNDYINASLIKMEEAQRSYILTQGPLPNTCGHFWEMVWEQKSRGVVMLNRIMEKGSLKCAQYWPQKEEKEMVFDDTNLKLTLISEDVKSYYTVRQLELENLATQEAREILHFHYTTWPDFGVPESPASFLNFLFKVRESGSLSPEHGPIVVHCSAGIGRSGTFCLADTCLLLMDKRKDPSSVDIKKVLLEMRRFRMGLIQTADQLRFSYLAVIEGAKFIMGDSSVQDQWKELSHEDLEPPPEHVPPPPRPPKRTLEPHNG
# In short: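 Thrombin-cleaved rat PTP1 residues 1-322 (35 ng/ml) with 1 mM pNPP in 50 mM Hepes pH 7.2, NaCl, EDTA, DTT, BSA at room temperature. A405 rate followed 60 min. Compounds added as 10 mM solutions; percent inhibition relative to plate DMSO controls, 1 mM orthovanadate as full-inhibition control.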
# human PTP1B = target: T2, human PTP1B (Homo sapiens, UniProt P18031); test: PTP1B assay, pNPP hydrolysis, assayed exactly as for PTP1; assay type: biochemical; conditions: for inhibition at 1 µM: Conc 1 uM; for inhibition at 1 µM / inhibition at 10 µM / inhibition at 100 µM: Table 2, read-out: PTP1B Inhib PTP1B. % Inhib; for PTP1B Inhib PTP1B. % Inhib: Table 2
# T2 construct: human PTP1B (amino acid residues 1-321); made in house; host or cells: E. coli BL21(DE3)
# T2 sequence (P18031 1-321): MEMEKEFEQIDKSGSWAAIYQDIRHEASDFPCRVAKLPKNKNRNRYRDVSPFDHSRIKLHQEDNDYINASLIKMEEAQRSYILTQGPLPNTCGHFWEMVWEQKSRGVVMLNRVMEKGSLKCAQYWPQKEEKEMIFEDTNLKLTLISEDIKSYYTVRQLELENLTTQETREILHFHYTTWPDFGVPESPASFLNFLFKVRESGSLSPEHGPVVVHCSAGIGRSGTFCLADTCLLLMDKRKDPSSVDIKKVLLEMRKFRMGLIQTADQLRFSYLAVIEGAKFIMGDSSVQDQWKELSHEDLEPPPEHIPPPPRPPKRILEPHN
# Description: The equivalent construct of human PTP1B (amino acid residues 1-321) (cloned from a human placental library), without the GST tag and thrombin cleavage site, was inserted into a pMB replicon and transformed into E. coli BL21(DE3), a strain containing a chromosomal copy of the gene for T7 RNA polymerase under control of a lacUV5 promoter. Expression of PTP1B was induced with isopropyl thiogalactose and the soluble protein was purified by ion exchange, hydrophobic interaction and gel exclusion chromatography for use in the assay to identify PTP inhibitors.
# PTP1 activity is measured using either p-nitrophenol phosphate (pNPP) or a triphosphopeptide (that matches residues 1142 through 1153 of the β-subunit and the insulin receptor) as substrate in a 96-well microtiter plate format. An assay pH of 7.2 is used for standard assays (measured 405=9800 at pH 7.2).
# Human PTP1B, which is highly homologous to rat PTP1, was assayed exactly as described above for PTP1.
# Standard assays are conducted at room temperature in a total volume of 0.2 ml that contains Hepes buffer (50 mM, pH 7.2), NaCl (50 mM), EDTA (1 mM), DTT (1 mM), bovine serum albumin (1 mg/ml), pNPP (1 mM) and PTP1 (35 ng/ml). Compounds (2 μl of 10 mM solutions) are pipetted into wells of microtiter plates followed by 198 μl of premixed reaction mix (with PTP1 and pNPP added immediately before use). The rate of change in A405 is recorded for 60 min. Two wells on each plate contain DMSO controls and two wells contain sodium orthovanadate (1 mM) which inhibits PTP1-catalyzed hydrolysis of pNPP completely. Data are expressed as percent inhibition relative to the average of the DMSO controls measured on the same microtiter plate.
SMILES,inhibition at 1 µM (rat PTP1) [%],inhibition at 10 µM (rat PTP1) [%],inhibition at 100 µM (rat PTP1) [%],inhibition at 1 µM (human PTP1B) [%],inhibition at 10 µM (human PTP1B; Conc 10 uM) [%],inhibition at 100 µM (human PTP1B; Conc 100 uM) [%],melting point [°C],PTP1B Inhib PTP1B. % Inhib (human PTP1B; Conc 10 uM),PTP1B Inhib PTP1B. % Inhib (human PTP1B; Conc 100 uM),Ki (rat PTP1) [µM]
CCCCCNC(=O)C(Cc1ccc(OC(COO)COO)cc1)NC(=O)C(Cc1ccccc1)NC(=O)CCC(=O)O (stereo not shown),37,84,97,45,87,99,–,–,–,–
CCCCCNC(=O)C(Cc1ccc(OC(COO)COO)cc1)NC(=O)C(Cc1ccc(C(=O)c2ccccc2)cc1)NC(=O)OC(C)(C)C (stereo not shown),10,44,91,9,42,90,–,–,–,–
CCCCCNC(=O)C(Cc1ccc(OC(COO)COO)cc1)NC(=O)C(C)NC(=O)OC(C)(C)C (stereo not shown),0,22,76,7,36,83,–,–,–,–
"CC(C)(C)OC(=O)N[C@@H](Cc1ccccc1)C(=O)N[C@H](CO)Cc1ccc(OCC(=O)O)c(C(=O)O)c1 [Example 138, 5-[(2S)-2-({(2S)-2-[(tert-butoxycarbonyl)amino]-3-phenylpropanoyl}amino)-3-hydroxypropyl]-2-(carboxymethoxy)benzoic Acid]",–,–,–,–,–,–,168.8 to 172.3,–,–,–
CCCCCNC(=O)C(Cc1ccc(OC(COO)C(=O)O)cc1)NC(=O)NC(Cc1ccc(OCc2ccccc2)cc1)C(=O)O (stereo not shown),8,55,96,14,63,97,–,–,–,–
CCCCCNC(=O)C(Cc1ccc(OCCOO)c(COO)c1)NC(=O)C(Cc1ccccc1)NC(=O)OC(C)(C)C (stereo not shown) [drawing 162],40,84,97,–,–,–,–,78% and 54% and 43%,97% and 89% and 87%,–
"O=C(O)COc1ccc(C[C@H](NC(=O)c2ccccc2)C(=O)NCCCCc2ccccc2)cc1-c1nn[nH]n1 [Example 146, 2-[4-{(2S)-2-(benzoylamino)-3-oxo-3-[(4-phenylbutyl)amino]-propyl}-2-(2H-1,2,3,4-tetrazol-5-yl)phenoxy]acetic Acid]",–,–,–,–,–,–,223 to 225,–,–,20
"CCCCCNC(=O)[C@@H](Cc1ccc(OCC(=O)O)c(C(=O)O)c1)NC(=O)Cc1ccccc1OC [Example 153, 2-(carboxymethoxy)-5-[(2R)-2-{[2-(2-methoxyphenyl)acetyl]amino}-3-oxo-3-(pentylamino)propyl]benzoic Acid]",–,–,–,–,–,–,146 to 148,–,–,30
"CCCCCNC(=O)[C@H](Cc1ccc(OCC(=O)O)c(C(=O)O)c1)NC(=O)[C@@H](Cc1ccccc1)N1CCCC1=O [Example 143, 2-(carboxymethoxy)-5-[(2S)-3-oxo-2-{[(2R)-2-(2-oxo-1-pyrrolidinyl)-3-phenylpropanoyl]amino}-3-(pentylamino)propyl]benzoic Acid]",–,–,–,–,–,–,96 to 97,–,–,–
"O=C(O)COc1ccc(C[C@H](NC(=O)c2ccoc2)C(=O)NCCCCc2ccccc2)cc1-c1nn[nH]n1 [Example 147, 2-[4-{(2S)-2-(3-furoylamino)-3-oxo-3-[(4-phenylbutyl)amino]-propyl}-2-(2H-1,2,3,4-tetrazol-5-yl)phenoxy]acetic Acid]",–,–,–,–,–,–,230 to 233,–,–,46
CCCCCNC(=O)C(Cc1ccc(OC(COO)COO)cc1)NC(=O)C(Cc1ccccc1)NC(=O)OC(C)(C)C (stereo not shown),9,42,88,7,48,91,–,–,–,–
